Biological target: T1, human α1A-receptors (Homo sapiens, UniProt P35348)
T1 construct: expressed in transfected cells
T1 sequence (P35348 1-466): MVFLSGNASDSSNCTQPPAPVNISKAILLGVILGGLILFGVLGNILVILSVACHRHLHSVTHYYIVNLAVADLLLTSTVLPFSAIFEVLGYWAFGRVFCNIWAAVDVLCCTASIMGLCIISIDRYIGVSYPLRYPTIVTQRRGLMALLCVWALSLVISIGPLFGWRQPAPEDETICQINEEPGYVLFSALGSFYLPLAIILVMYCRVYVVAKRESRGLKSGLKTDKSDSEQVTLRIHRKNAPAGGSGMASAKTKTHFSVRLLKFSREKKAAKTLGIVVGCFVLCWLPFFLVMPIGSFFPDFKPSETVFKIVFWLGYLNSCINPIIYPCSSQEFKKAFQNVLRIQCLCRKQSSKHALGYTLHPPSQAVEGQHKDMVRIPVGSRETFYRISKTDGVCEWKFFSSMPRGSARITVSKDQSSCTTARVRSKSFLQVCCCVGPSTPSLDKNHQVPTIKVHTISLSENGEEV
Experiment: Phenylephrine-induced Ca2+ release in CHO cells expressing human α1A-receptors (fluo-4)
Assay type: cell-based
Details: 10 µM phenylephrine, 1 mM EGTA buffer
Procedure: For measurement of norgestimate effects on adrenoceptor signaling a CHO cell line stably expressing human α1A-receptors (GenBank accession number NM_000680.2) under control of a CMV promoter was used. CHO cells were kept in HAM's F-12 medium (with glutaMAX I) supplemented with 10% (v/v) fetal bovine serum (Biochrom), 1 mM glutamine, and 0.6 mg/ml geneticin.
[Ca^2+]i measurements in CHO cells stably expressing human α1A –receptors were performed essentially as described for HEK-FITR cells. The α1- agonist phenylephrine was used for receptor stimulation.
Supplementary file pone.0035393.s001.tif: Figure S1 Stimulatory effect of norgestimate on α1A- receptor-mediated Ca^2+ signaling in CHO cells. (A) Phenylephrine (Phe) -induced changes of [Ca^2+]i were measured in a stable CHO cell line expressing human α1A-adrenoceptors. Cells loaded with fluo-4 were pre-incubated with or without 30 µM norgestimate (NG) and challenged with 10 µM phenylephrine or control buffer. Representative traces are shown. Fluorometric imaging plate reader [Ca^2+]i measurements were performed essentially as described for HEK-FITR cells (see Materials and Methods) with the exception that the extracellular buffer contained 1 mM EGTA instead of 2 mM Ca^2+. (B) The relative increase in Ca^2+ release induced in the presence of different concentrations of norgestimate is shown. […]

- Effect on phenylephrine-induced Ca2+ release: significantly stimulated
Compound: C#C[C@]1(OC(C)=O)CC[C@H]2[C@@H]3CCC4=CC(=NO)CC[C@@H]4[C@H]3CC[C@@]21CC (mixture of isomers) [norgestimate]
